Assay results reported in patent publication US20220380383A1, “NEUROPROTECTIVE PDI MODULATING SMALL MOLECULES AND METHODS OF USE THEREOF” (THE TRUSTEES OF COLUMBIA UNIVERSITY IN THE CITY OF NEW YORK, priority 2018, published 2022).
pEC50, pKd: −log10 of the molar value. ≈ marks a conversion by molar mass, not a printed value.

Tests used:
[1] = system: neuronal redox state (roGFP2); assay: roGFP2 redox reporter in primary neurons; format: cell-based; conditions: 30 min treatment
Method: […]. Rat coronal brain slice explants co-transfected with YFP and Tau-4R (FIG. 16B) or striatal brain slice explants co-transfected with YFP and mHTT (FIG. 16C) were treated with LC-43 or DMSO carrier-only for 3 days. The respective regions of each brain slice were then scored for numbers of healthy (FIG. 16B) pyramidal or (FIG. 16C) medium spiny neurons remaining. Data are normalized to the negative control condition set to 100% and plotted as means±SEM. In FIG. 16D, The confocal images shown are maximal z-stacks of 0.5 μm steps (˜20 images per stack). (Bottom) Reduction of neuronal redox state by LC-43. Left, Primary neurons were co-transfected with mCherry (to positively identify transfected neurons) and the genetically encoded ratiometric redox reporter roGFP2. Four days later, the culture medium was changed into an identical formulation except without conventional antioxidant additives. 24 hours after this medium change, LOC-43 or DMSO carrier-only were added to the neurons and images were taken after 30 minutes or 24 hours of treatment as indicated. Imaging was done using a Leica SP5 inverted confocal microscope through a 63× water-immersion objective. Images of 40 individual neurons for each condition were collected at 405 and 488 nm and analysis of the 405/488 ratio for each image pair was done using CellProfiler (Broad Institute).
As mentioned, we synthesized several fluorine-containing analogs of LOC14 (analogs LC-43 and LC-40). Addition of fluorine was the only modification that was tolerated at the ortho position without a complete loss of activity in cells and in targeting PDI in vitro (Table 9). […] Additionally, we evaluated LC-43 using a genetically encoded redox reporter transfected into neurons. […] In contrast, treatment with the non-selective reducing agent dithiothreitol (DTT) produces an immediate and dramatic reduction in the roGFP2 fluorescence ratio that leads rapidly to cell degeneration and death (FIG. 16D). […]

[2] = biological target: T1, human catalytic PDI A1 a domain (PDIa) (Homo sapiens, UniProt P07237); assay: Isothermal titration calorimetry (ITC) binding to PDIa; conditions: Tables 5-13; NA = not active; read-out: Kd
T1 construct: made in house; host or cells: Escherichia coli BL21-Gold (DE3)
T1 sequence (P07237 18-134): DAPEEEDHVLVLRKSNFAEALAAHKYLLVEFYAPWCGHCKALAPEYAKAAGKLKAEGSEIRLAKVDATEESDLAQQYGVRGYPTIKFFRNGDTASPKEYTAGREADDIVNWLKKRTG

PC12 mHTTQ103 cells [3] = assay: Rescue of PC12 cells from mHTTQ103-induced cell death; format: cell-based, rat; conditions: Tables 5-13, PC12 cells
[4] = biological target: T2, PDIa C56S mutant (PDI C39S) (Homo sapiens, UniProt P07237, C56S); assay: MALDI-TOF mass spectrometry with PDIa C56S mutant; format: binding
T2 construct: made in house; host or cells: E. coli
T2 sequence (P07237 18-134 C56S): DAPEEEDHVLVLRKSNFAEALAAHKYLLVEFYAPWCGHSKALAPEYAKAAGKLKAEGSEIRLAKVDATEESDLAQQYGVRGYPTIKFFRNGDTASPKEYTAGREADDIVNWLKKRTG
Text: We also explored the feasibility of generating a crystal structure of PDI bound to one of these inhibitors for structure-based analog design. LOC14 is a reversible inhibitor of PDI and therefore may not remain bound to the protein in crystallization trays. To trap the LOC14-PDI complex, we generated a PDI C39S mutant that should not release the compound from PDI. To confirm this mechanism of binding, we performed MALDI-TOF mass-spectrometry experiments with PDI C39S in the presence and absence of LOC14 (FIG. 4). […] PDI C39S treated with LOC14 gave 4 peaks: main mass peak at 15,557 Da (change of +152 which corresponds to the bound benzoisothiazolone moiety to PDI C39S), a peak at 15,735 Da (corresponding to the benzoisothiazolone moiety bound to C39S-gluconoylated protein), a peak at 15,404 (the mass of unbound C39S protein), and a peak at 15,584 Da (the mass of unbound C39S-gluconoylated protein). […] The incomplete binding is most likely due to the presence of reducing agent in the buffer. […]
To confirm that binding of LOC14 to PDI is reversible, we pre-treated a C56S mutant, as before, with LOC14, BIT, or iodoacetamide, an irreversible modifier of cysteines. Once the PDI-inhibitor complexes were formed, we treated the samples with 2.7 mM DTT, a reducing agent, and analyzed the complex by MALDI-TOF.

[5] = Solubility (stock solvent); conditions: Tables 5-13; solvent not given (DMSO in Table 1)
[6] = system: ROS in PC12 mHTTQ103 cells; assay: CellROX Orange flow cytometry ROS assay; format: cell-based, rat; conditions: 3 μM, 24 hours, mHTT-induced cells
Method: (§1) In FIG. 14B, cells were stained with 5 μM CeIIROX Orange dye to assay cellular ROS production. Representative data from one of three flow cytometry replicates are shown. In FIG. 14C, an aliquot from each sample was used for assessing viability, using Trypan blue dye on ViCell. […] Data are plotted as mean±SD with n=3.
(§2) One goal was to further understand why modulating PDI activity can be neuroprotective in AD and HD models. Previously, we saw that LOC14 alters PDI's redox state from the reduced to the oxidized conformation (Kaplan et al. 2015). In vivo, there are oxidoreductase enzymes, such as ERO1, that regulate PDI's redox states and, as a byproduct of the redox reaction, pass electrons to oxygen as a final electron acceptor, generating H2O2. We hypothesized that LOC14 might function in place of oxidoreductases such as ERO1, oxidizing PDI without generating H2O2 and that this decrease in ROS production is what is causing the neuroprotection in cells and neurons. […] Cells were then stained with the fluorescent ROS-sensitive dye, CeIIROX Orange, and ROS assayed by flow cytometry. Induced mHTT-expressing cells had elevated levels of ROS compared to cells not expressing mHTT (uninduced cells) and these ROS were decreased in cells treated with LOC14 (FIG. 14B). […]

PC12 mHTTQ103 cells [7] = assay: Trypan blue viability assay; format: cell-based, rat; conditions: 3 μM, 24 hours
Method: as §1, §2

O[C@H](CS)[C@H](O)CS (racemic) [DTT, dithiothreitol, reference compound]
neuronal redox state (roGFP2) [1]: immediate and drastic reduction

O=c1[nH]sc2ccccc12 [BIT, benzoisothiazolone, reference compound]
pKd [2]: 6.84
pEC50 (PC12 mHTTQ103 cells [3]; Rattus norvegicus, PC-12, read-out: EC50): 6.44
Max Viability (%) (PC12 mHTTQ103 cells [3]): 66%
reversibility of binding to PDIa C56S after 2.7 mM DTT [4]: bind reversibly to C53
Solubility [5]: 100 mM (≈ 15.1 mg/mL)

O=C(C1CC1)N1CCN(Cn2oc3ccccc3c2=O)CC1 [OxyLOC14]
cellular ROS (CellROX Orange flow cytometry) [6]: did not decrease ROS
protection from mHTT in trypan blue viability assay (PC12 mHTTQ103 cells [7]): did not show any protection from mHTT

NC(=O)CI [iodoacetamide]
reversibility of binding to PDIa C56S after 2.7 mM DTT [4]: irreversible
